# Assay results reported in article PMC3921447, “Homologous and heterologous desensitization of guanylyl cyclase-B signaling in GH3 somatolactotropes” (Cell and Tissue Research, 2013).
# Where two headings read alike, the source gives them in different places. Ends that are not written are not given here.
# Columns and labels:
# GC-B [1] = molecular target: T1, GC-B (Rattus norvegicus, UniProt P16067); assay: Heterologous desensitization of CNP-stimulated (GC-B) cGMP accumulation in GH3 cells; type: cell-based; details: then 100 nM CNP 15 min with 1 mM IBMX, n = 3
# T1 construct: rapid homologous desensitization of endogenous GC-B receptors in GH3 cells; endogenous in cells; host or cells: GH3 rat somatolactotrope cells
# T1 sequence (P16067 17-1047): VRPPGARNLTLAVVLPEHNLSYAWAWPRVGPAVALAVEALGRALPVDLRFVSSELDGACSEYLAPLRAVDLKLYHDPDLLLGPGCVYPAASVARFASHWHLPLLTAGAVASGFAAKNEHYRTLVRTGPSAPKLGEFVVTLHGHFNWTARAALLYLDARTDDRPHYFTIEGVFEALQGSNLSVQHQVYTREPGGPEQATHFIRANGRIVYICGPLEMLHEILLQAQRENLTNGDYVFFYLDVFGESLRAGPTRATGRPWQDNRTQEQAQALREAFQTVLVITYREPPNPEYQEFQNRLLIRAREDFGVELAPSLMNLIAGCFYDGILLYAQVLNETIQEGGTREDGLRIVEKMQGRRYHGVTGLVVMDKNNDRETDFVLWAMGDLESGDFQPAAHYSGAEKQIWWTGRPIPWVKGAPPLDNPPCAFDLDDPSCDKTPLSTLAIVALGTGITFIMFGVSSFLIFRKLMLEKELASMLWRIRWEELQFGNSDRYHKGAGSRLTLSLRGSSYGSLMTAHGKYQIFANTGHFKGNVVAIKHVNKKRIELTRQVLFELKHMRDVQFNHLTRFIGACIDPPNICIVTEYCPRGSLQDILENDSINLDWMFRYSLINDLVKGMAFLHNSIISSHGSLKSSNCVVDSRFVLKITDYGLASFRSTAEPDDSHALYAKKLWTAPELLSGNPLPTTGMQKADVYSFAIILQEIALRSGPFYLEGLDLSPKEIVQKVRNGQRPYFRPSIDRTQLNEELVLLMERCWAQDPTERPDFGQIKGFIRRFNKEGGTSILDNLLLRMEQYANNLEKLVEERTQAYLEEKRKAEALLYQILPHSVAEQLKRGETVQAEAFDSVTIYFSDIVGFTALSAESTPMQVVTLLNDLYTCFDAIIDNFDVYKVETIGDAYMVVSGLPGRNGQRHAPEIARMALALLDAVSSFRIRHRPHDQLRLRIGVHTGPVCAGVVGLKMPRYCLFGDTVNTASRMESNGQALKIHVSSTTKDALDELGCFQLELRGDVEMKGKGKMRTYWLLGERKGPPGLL
# Excerpt: (§1) Sphingolipids and calcium have been implicated in regulating natriuretic peptide signaling (Abbey-Hosch et al. [2004]; Abbey and Potter [2002]). Therefore, we examined the role of sphingosine-1-phosphate (S1P) on CNP-stimulated cGMP accumulation. […] However, S1P pre-treatment did cause desensitization of CNP-stimulated cGMP accumulation (by 30 ± 2.7 % compared with control, **P < 0.01).
# (§2) Fig. 6 Evidence of sphingosine-mediated but not calcium-mediated, heterologous desensitization of GC-B signaling in GH3 somatolactotrope cells. GH3 cells were pre-treated with PSS containing either (a, b) 10 μM sphingosine-1-phosphate (S1P) or (c, d) 1 μM A23187 (calcium ionophore) for 30 min in the absence of IBMX, before a 15-min stimulation with either 100 nM CNP (a, c) or 100 nM ANP (b, d) in the presence of 1 mM IBMX.
# (§3) Subsequent experiments examined the potential regulation of GC-B signaling by other peptide hormones. To determine whether the GC-B receptor underwent heterologous desensitization in GH3 cells, the effect of three known activators of PKC on CNP-stimulated cGMP accumulation was analyzed. […] To establish whether the TRH-induced heterologous desensitization of GC-B signaling was PKC-dependent, GH3 cells were pre-treated with either 0 or 1 μM GF109203X for 30 min to inhibit PKC activity. After this, cells were further pre-treated in the absence or presence of GF109203X and 0 or 100 nM TRH for a further 30 min, prior to stimulation with 0 or 100 nM CNP for a final 15-min stimulation in the presence of 1 mM IBMX.
# (§4) Fig. 7 Protein kinase C (PKC)-dependent heterologous desensitization mediates the effects of thyrotrophin-releasing hormone (TRH) on CNP-stimulated GC-B signaling in GH3 somatolactotrope cells. a GH3 cells were pre-treated with PSS containing either 0 or 100 nM TRH, phorbol-12-myristate-13-acetate (PMA), or pituitary adenylate cyclase-activating polypeptide (PACAP) for 30 min in the absence of IBMX, before a 15-min stimulation with either 0 or 100 nM CNP in the presence of 1 mM IBMX.
# [2] = test system: human airway smooth muscle cells; details: ref Hamad and Knox [1999]; cited from earlier work
# Excerpt: (§5) The other major mechanism mediating heterologous desensitization of GC-A and GC-B signaling is the PKC pathway (Potter et al. [2006]). We examined the effects of pre-treatment with TRH, PMA, or PACAP. […] This is in agreement with the predominant expression of vasoactive intestinal peptide activated receptor 2, which is known preferentially to activate cAMP and PKA (Hao et al. [2006]). In contrast, pre-treatments with two known activators of PKC, TRH and PMA do ...
# GH3 cells = assay: Basal cGMP accumulation in GH3 cells after pre-treatment; type: cell-based, rat; details: 100 nM TRH, PMA or PACAP, 30 min pre-treatment; ns, P > 0.05; Fig. 7a
# Excerpt: as §1, §2, §3, §4
# GC-B [3] = details: αT3-1 cells, cited from earlier work
# Excerpt: Experimental paradigms to investigate receptor desensitization are often performed in one of two ways: time-course studies of a single continuous exposure to ligand or pre-treatment and subsequent re-exposure to the same ligand. Our current studies involved the use of both of these approaches to examine particulate guanylyl cyclase signaling in GH3 cells, similar to previous studies investigating PACAP signaling in gonadotropes (McArdle and Forrest-Owen [1997]). Time-course studies of CNP-stimulated cGMP accumulation in GH3 cells have shown a rapid elevation of cGMP levels within 5 min of CNP ... || The other major mechanism mediating heterologous desensitization of GC-A and GC-B signaling is the PKC pathway (Potter et al. [2006]). We examined the effects of pre-treatment with TRH, PMA, or PACAP. […] This is in agreement with the predominant expression of vasoactive intestinal peptide activated receptor 2, which is known preferentially to activate cAMP and PKA (Hao et al. [2006]). In contrast, pre-treatments with two known activators of PKC, TRH and PMA do ...
# GC-B [4] = details: 293 T cells; ref Abbey-Hosch et al. [2005]; cited from earlier work
# Excerpt: as §5
# growth hormone secretion = details: ref Hartt et al. [1995]; Shimekake et al. [1994]; cited from earlier work
# Excerpt: Both humans and mice with mutations in the genes encoding either CNP or its receptor, GC-B, suffer from severe growth disorders (Chusho et al. [2001]) and, in some cases, growth hormone deficiency (Tamura et al. [2004]). Despite significant homology between the three natriuretic peptides and between their receptors, mutations in the genes encoding ANP, BNP, or GC-A fail to phenocopy CNP/GC-B-disrupted mice (Kishimoto et al. [2011]). Our recent observations of GC-B expression in normal fetal pituitary tissue and in a range of human pituitary adenomas (including those from acromegalics) strongly ...
compound,measurement,setting,value
CN(C)CCCn1cc(C2=C(c3c[nH]c4ccccc34)C(=O)NC2=O)c2ccccc21 [GF109203X],"CNP-stimulated cGMP, % of control response to CNP (TRH desensitization reversed to)","GC-B [1]; 1 μM GF109203X 30 min, then GF109203X + 100 nM TRH 30 min, ns compared with control, Fig. 7b",76.4 ± 17.2%
same,reversal of PKC-dependent desensitization,[2],"capable of reversing the effect, as has been described previously in human airway smooth muscle cells"
"CCCCCCCCCCCCCC(=O)O[C@@H]1[C@@H](C)[C@@]2(O)[C@@H](C=C(CO)C[C@]3(O)C(=O)C(C)=C[C@@H]23)[C@@H]2C(C)(C)[C@]12OC(C)=O [PMA, phorbol-12-myristate-13-acetate]",reduction in CNP-stimulated cGMP accumulation compared with control,"GC-B [1]; 100 nM, 30 min pre-treatment without IBMX, ***P < 0.001, Fig. 7a",51.9 ± 2.8%
same,basal cGMP accumulation,GH3 cells,failed to alter basal cGMP accumulation
same,desensitization of GC-B activity,GC-B [3]; ref Fowkes et al. [2000],shown to desensitize GC-B activity in 293 T cells and αT3-1 cells
same,desensitization of GC-B activity,GC-B [4],shown to desensitize GC-B activity in 293 T cells and αT3-1 cells
"Nc1nc2c(ncn2[C@@H]2O[C@@H]3COP(=O)(O)O[C@H]3[C@H]2O)c(=O)[nH]1 [cGMP, cyclic guanosine 3’,5’ monophosphate]",growth hormone secretion,growth hormone secretion,act as growth hormone secretogogs
"gonadotrophin-releasing hormone (QHWSYGLRPG; ends and bridges not checked; UniProt P01148 24-33, looked up)",heterologous desensitization of GC-B signaling,"GC-B [3]; ref McArdle et al. [1994], Fowkes et al. [2000]",can cause the heterologous desensitization of GC-B signaling in αT3-1 cells
